The text below walks through data of publication PMC4076210, “Discovery of Novel AKT Inhibitors with Enhanced Anti-Tumor Effects in Combination with the MEK Inhibitor” (PLoS ONE, 2014).

One assay addresses T1, IKKα(h) (Homo sapiens, UniProt O15111).
T1 construct: purchased Millipore KinaseProfiler
T1 sequence (O15111 1-745): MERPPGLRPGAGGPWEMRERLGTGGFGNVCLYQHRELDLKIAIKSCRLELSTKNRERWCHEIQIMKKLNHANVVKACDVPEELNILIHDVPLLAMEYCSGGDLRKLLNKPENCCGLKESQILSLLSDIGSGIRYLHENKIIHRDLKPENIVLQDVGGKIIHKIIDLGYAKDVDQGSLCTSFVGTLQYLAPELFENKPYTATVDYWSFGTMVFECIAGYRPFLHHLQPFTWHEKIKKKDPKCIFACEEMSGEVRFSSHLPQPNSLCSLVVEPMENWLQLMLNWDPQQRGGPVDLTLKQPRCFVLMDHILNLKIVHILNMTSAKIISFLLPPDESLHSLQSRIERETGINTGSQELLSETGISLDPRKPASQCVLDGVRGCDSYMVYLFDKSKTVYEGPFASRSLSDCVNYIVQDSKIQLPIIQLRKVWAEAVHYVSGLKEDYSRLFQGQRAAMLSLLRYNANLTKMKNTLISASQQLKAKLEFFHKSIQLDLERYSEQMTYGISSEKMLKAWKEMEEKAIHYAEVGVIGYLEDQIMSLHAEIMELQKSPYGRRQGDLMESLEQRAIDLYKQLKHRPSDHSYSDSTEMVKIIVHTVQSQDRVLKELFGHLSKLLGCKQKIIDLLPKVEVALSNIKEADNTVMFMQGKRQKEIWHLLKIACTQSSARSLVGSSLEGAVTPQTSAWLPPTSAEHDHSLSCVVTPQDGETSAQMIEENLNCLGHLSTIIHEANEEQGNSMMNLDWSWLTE
Kind of assay: Kinase panel. The class given is biochemical.

Another assay concerns the target T2, CK1γ1(h) (Homo sapiens, UniProt Q9HCP0).
T2 construct: purchased Millipore KinaseProfiler
Kind of assay: Kinase panel. The class given is biochemical.

The subject of assay [1] is AKT substrate phosphorylation in LNCaP. Kind of assay: Western analysis of AKT signaling. The class given is cell-based, human. The note with it: 1 h. The procedure:
(§1) Cells treated with DMSO or compounds for different duration were lysed using RIPA buffer (Teknova) containing protease and phosphatase inhibitors (Sigma Aldrich). Equal amounts of protein were resolved in 4–12% SDS-PAGE gels (Invitrogen), transferred onto 0.45 µm PVDF membrane (Invitrogen), and incubated with primary antibodies (1∶1000 dilution) overnight. Antibodies for AKT, phospho-AKT (Ser473 and Thr308), phospho-FOXO (Thr24/32), phospho-MEK1/2 (Ser217/221) were purchased from Cell Signaling Technologies. Phospho-GSK3β (Ser9) antibody was from R&D Systems. PRAS40 and phospho-PRAS40 (Thr246) antibodies were obtained from Millipore. Phospho-ERK1/2 (Tyr204), ERK1/2, and phospho-Caspase 9 (Ser196) antibodies were purchased from Santa Cruz Biotechnologies. Tubulin antibodies were purchased from Sigma Aldrich. Following incubation with primary antibody, blots were washed and incubated with IRDye-680 goat-anti-mouse or IRDye-800CW goat-anti-rabbit antibodies (1; 10,000 dilution; LI-COR) for 1 h. Following thorough washing, blots were analyzed using an infrared imaging system (LI-COR).

In assay [2] the test system is AKT substrate phosphorylation in BT474. Kind of assay: Western analysis of AKT signaling. The class given is cell-based, human. The note with it: BT474, 1 h. The procedure: as §1
For the next assay, the target named is T3, ASK1(h) (Homo sapiens, UniProt Q99683).
T3 construct: purchased Millipore KinaseProfiler
T3 sequence (Q99683 1-1374): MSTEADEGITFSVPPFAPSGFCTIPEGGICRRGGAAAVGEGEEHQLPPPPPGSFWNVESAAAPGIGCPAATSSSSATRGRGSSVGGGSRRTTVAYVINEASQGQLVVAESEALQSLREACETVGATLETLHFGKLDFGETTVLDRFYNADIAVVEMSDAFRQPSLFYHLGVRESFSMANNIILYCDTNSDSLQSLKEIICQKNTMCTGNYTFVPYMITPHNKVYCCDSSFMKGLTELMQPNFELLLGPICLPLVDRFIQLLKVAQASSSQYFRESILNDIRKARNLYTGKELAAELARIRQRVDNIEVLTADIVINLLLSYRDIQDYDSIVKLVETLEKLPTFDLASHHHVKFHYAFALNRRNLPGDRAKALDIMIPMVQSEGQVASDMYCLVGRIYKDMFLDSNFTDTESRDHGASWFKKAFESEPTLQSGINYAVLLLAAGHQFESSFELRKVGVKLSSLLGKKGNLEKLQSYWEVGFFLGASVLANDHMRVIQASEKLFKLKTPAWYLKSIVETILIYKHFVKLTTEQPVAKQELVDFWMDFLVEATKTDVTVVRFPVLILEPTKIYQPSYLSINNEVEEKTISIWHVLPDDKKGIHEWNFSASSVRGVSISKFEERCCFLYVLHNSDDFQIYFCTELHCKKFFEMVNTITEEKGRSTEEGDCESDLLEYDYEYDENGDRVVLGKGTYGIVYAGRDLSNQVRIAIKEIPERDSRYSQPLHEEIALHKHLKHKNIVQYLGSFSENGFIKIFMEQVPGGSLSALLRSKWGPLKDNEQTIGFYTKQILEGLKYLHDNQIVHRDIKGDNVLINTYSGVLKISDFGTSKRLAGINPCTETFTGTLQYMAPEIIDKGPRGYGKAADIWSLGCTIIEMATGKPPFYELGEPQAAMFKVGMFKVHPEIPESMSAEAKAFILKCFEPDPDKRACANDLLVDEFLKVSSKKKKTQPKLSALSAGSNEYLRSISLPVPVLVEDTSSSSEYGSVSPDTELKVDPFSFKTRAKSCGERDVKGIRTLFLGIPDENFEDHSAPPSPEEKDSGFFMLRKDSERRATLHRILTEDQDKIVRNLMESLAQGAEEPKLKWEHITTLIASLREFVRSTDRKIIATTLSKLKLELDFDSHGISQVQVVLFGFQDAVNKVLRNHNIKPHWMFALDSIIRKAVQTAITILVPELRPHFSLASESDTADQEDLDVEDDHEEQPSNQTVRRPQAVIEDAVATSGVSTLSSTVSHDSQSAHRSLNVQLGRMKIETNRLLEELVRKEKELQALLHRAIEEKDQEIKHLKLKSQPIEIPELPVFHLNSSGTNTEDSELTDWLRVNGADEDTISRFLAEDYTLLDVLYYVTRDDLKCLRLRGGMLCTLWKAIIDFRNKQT
Kind of assay: Kinase panel. The class given is biochemical.

The target in the next assay is T4, EphA5(h) (Homo sapiens, UniProt P54756).
T4 construct: purchased Millipore KinaseProfiler
Kind of assay: Kinase panel. The class given is biochemical.

Structures are written as SMILES. Read-outs that look alike come from different tables or passages of the source.

T2 sequence (Q9HCP0 whole entry): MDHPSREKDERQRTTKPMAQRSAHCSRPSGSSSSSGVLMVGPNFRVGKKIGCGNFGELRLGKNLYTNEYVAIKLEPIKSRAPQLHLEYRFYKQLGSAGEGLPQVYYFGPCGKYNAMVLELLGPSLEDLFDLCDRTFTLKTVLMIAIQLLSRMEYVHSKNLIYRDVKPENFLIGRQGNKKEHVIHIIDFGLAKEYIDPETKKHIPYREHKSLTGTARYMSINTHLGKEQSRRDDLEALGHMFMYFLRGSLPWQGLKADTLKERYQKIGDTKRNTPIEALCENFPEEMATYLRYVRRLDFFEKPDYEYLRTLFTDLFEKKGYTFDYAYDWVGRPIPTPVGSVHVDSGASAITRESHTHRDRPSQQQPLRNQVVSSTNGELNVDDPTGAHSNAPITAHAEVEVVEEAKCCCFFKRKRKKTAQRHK
T4 sequence (P54756 25-1037): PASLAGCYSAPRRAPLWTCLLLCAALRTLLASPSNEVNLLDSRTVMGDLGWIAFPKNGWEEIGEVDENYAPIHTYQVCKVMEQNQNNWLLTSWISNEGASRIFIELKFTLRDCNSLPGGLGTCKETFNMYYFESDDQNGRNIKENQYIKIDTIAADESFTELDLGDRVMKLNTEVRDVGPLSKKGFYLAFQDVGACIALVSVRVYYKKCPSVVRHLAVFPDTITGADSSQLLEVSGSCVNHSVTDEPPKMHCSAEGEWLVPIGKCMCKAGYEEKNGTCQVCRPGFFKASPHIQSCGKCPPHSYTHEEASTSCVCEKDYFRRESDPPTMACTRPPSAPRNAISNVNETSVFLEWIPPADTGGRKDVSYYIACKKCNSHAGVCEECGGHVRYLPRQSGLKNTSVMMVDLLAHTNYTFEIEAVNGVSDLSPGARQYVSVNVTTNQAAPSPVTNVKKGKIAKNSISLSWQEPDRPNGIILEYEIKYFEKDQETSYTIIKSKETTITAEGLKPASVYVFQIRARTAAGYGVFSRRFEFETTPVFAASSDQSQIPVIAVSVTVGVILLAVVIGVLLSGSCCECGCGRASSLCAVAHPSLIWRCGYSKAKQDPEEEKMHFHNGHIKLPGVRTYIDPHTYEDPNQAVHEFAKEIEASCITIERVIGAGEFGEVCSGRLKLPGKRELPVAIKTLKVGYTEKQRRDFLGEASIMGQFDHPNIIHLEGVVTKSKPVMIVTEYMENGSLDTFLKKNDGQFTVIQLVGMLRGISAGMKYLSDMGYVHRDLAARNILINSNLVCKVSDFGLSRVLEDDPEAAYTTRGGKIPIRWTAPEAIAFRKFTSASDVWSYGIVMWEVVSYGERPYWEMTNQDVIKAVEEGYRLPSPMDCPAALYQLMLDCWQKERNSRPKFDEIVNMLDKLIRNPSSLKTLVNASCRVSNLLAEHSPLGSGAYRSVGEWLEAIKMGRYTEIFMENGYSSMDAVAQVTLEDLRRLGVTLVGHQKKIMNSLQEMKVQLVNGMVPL

As a reminder, the inhibition is the change of the read-out against control, counted positive when it falls. Regarding `Cn1ncc(Cl)c1-c1cc(C(=O)N[C@H](CN)Cc2ccc(F)c(F)c2)oc1Cl` [GSK2141795], the inhibition at 0.5 µM at IKKα(h) (0.5 µM, read-out: % Inhibition) was -12%; on CK1γ1(h) (0.5 µM, read-out: % Inhibition), -6%; at ASK1(h) (0.5 µM, read-out: % Inhibition), -21%; on EphA5(h) (0.5 µM, read-out: % Inhibition) it was -6%. In addition, the inhibition at 10 µM on IKKα(h) (10 µM, read-out: % Inhibition) is 6%; at CK1γ1(h) (10 µM, read-out: % Inhibition), 39%; on ASK1(h) (10 µM, read-out: % Inhibition) it was -14%; at EphA5(h) (10 µM, read-out: % Inhibition) it was 10%. The “AKT substrate phosphorylation levels (GSK3β, PRAS40, FOXO, Caspase 9)” value in assay [1] and in assay [2] was “concentration-dependent effect” each time.

For `Cn1ncc(Cl)c1-c1cc(C(=O)N[C@H](CN)Cc2cccc(F)c2)sc1Cl` [GSK2110183], the inhibition at 0.5 µM is 9% on IKKα(h), -1% against CK1γ1(h), -2% against ASK1(h) and 5% on EphA5(h). Besides, the inhibition at 10 µM came to 8% at IKKα(h), 20% on CK1γ1(h), 3% against ASK1(h) and 9% against EphA5(h). Also, the “AKT substrate phosphorylation levels (GSK3β, PRAS40, FOXO, Caspase 9)” value in assay [1] and in assay [2] was “concentration-dependent effect” each time.
